Measured values from US9822147B2, “Methods of treating ophthalmic diseases using NPR-B agonists” (priority 2009, dated 2017).
Numbered stars: 1 amine (or outer) side, 2 acyl side, 3 side chain; on linkers, the order of the positions; unused ones are H or OH. Square brackets hold non-standard residues; d marks the D form. Peptide text beside a SMILES is read from it. * marks the point of attachment. Pro(4R-NH2) = N[C@H]1CN[C@H](C(=O)O)C1; dOrn(Me2) = CN(C)CCC[C@@H](N)C(=O)O; X11 = O=C(C(CCN1CCCC1)N[*:1])[*:2]; X19 = O=C(C(CC1CCNCC1)N[*:1])[*:2]; X2 = O=C([C@H]1CCCN([*:1])C1)[*:2]; X1 = CCCCCCCCN1CCC[C@H](C(=O)*)C1; dDap(Me2) = CN(C)C[C@@H](N)C(=O)O; Hyp = O=C(O)[C@@H]1C[C@@H](O)CN1; NHcycloheptyl = C1CCCC(N*)CC1; NMeL = CN[C@@H](CC(C)C)C(=O)O; Octanoyl = CCCCCCCC(=O)*; tBu = CC(C)(C)*

Target: T1, NPR-B (Homo sapiens, UniProt P20594)
T1 construct: a functional assay using endogenously NPR-B expressing GTM-3 cells; endogenous in cells; host or cells: GTM-3 (human glaucoma trabecular meshwork cells)
T1 sequence (P20594 23-1047): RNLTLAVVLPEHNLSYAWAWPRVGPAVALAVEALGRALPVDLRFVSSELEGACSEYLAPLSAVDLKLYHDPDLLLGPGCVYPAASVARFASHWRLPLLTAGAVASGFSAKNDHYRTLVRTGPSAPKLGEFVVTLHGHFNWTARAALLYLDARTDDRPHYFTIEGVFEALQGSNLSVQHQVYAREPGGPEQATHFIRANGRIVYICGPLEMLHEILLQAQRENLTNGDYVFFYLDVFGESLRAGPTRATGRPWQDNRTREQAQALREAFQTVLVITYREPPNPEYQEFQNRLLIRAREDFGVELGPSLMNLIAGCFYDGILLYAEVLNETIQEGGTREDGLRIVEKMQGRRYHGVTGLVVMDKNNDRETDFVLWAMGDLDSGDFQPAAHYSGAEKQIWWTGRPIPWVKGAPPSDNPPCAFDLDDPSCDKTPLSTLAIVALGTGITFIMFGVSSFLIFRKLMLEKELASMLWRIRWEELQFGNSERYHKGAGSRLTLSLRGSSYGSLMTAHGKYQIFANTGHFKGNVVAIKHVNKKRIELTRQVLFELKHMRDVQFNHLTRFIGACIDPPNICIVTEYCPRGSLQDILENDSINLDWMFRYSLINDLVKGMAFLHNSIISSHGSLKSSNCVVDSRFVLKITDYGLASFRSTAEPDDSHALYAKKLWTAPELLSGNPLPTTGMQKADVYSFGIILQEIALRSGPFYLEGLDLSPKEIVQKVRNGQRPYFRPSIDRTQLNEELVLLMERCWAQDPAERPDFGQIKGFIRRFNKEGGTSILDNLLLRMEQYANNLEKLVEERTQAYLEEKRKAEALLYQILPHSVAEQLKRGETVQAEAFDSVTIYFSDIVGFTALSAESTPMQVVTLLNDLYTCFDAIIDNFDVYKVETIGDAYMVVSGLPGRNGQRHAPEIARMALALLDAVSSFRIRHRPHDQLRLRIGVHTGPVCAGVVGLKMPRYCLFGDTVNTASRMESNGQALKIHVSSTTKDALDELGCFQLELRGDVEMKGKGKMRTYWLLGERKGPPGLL
Assay: NPR-B induced production of cyclic GMP in human glaucoma trabecular meshwork cells (GTM-3)
Type: cell-based
Settings: group by EC50 and Emax (CNP = 100%); Table 4; read-out: Activity (group), NPR-B activation assayed with GTM-3 cells

Row | SMILES | EC50 [µM]
1 | CCCCCCCC(=O)N[C@H](C)C(=O)N[C@@H](Cc1ccccc1)C(=O)NC1(C(=O)N[C@@H](CC(C)C)C(=O)N2C[C@H](O)C[C@H]2C(=O)N(C)[C@@H](CC(C)C)C(=O)N[C@@H](CC(=O)O)C(=O)N[C@@H](CCCNC(=N)N)C(=O)N[C@H](C(N)=O)[C@@H](C)CC)CCNCC1 [JAL-1338, Occ-ala-Phe-Apc-Leu-Hyp-Nml-Asp-Arg-Ile-NH2] (HELM PEPTIDE1{[CCCCCCCC(=O)[*:2]].[dA].F.[O=C(C1(N[*:1])CCNCC1)[*:2]].L.[Hyp].[meL].D.R.I.[am]}$$$$V2.0) | < 1
2 | CCCCCCCC(=O)N1CCC[C@H](C(=O)N[C@@H](Cc2ccccc2)C(=O)N[C@H](CCCN(C)C)C(=O)N[C@@H](CC(C)C)C(=O)N2C[C@H](O)C[C@H]2C(=O)N(C)[C@@H](CC(C)C)C(=O)N[C@H](C(=O)N[C@@H](CCCNC(=N)N)C(=O)N[C@H](C(N)=O)[C@@H](C)CC)C(C)C)C1 [JAL-1782, Occ-Sni-Phe-orn(Me2)-Leu-Hyp-Nml-Val-Arg-Ile-NH2] (Octanoyl-[X2]F[dOrn(Me2)]L[Hyp][NMeL]VRI-NH2) | < 1
3 | CCCCCCCC(=O)N1CCCC[C@@H]1C(=O)N[C@@H](Cc1ccccc1)C(=O)N[C@H](CCCNC(=N)N)C(=O)N[C@@H](CC(C)C)C(=O)N1C[C@H](O)C[C@H]1C(=O)N(C)[C@@H](CC(C)C)C(=O)N[C@@H](CC(=O)O)C(=O)N[C@@H](CCCNC(=N)N)C(=O)N[C@H](C(N)=O)[C@@H](C)CC [JAL-1087, Occ-pip-Phe-arg-Leu-Hyp-Nml-Asp-Arg-Ile-NH2] (HELM PEPTIDE1{[CCCCCCCC(=O)[*:2]].[O=C([C@H]1CCCCN1[*:1])[*:2]].F.[dR].L.[Hyp].[meL].D.R.I.[am]}$$$$V2.0) | < 1
4 | CCCCCCCC(=O)N1CCC[C@H](C(=O)N[C@@H](Cc2ccccc2)C(=O)NC(CCN2CCCC2)C(=O)N[C@@H](CC(C)C)C(=O)N2C[C@H](O)C[C@H]2C(=O)N(C)[C@@H](CC(C)C)C(=O)N[C@@H](CC(=O)O)C(=O)N[C@@H](CCCNC(=N)N)C(=O)N[C@H](C(N)=O)[C@@H](C)CC)C1 (stereo partly drawn) [JAL-1877, Occ-Sni-Phe-(AR-385-12)-Leu-Hyp-Nml-Asp-Arg-Ile-NH2] (Octanoyl-[X2]F[X11]L[Hyp][NMeL]DRI-NH2) | < 1
5 | CCCCCC[C@H](NC(=O)[C@@H]1CCCN1C(=O)[C@@H](N)CCCCN)C(=O)N1CCC[C@H](C(=O)N[C@@H](Cc2ccccc2)C(=O)N[C@H](CC(C)C)C(=O)N[C@@H](CC(C)C)C(=O)N2C[C@H](O)C[C@H]2C(=O)N(C)[C@@H](CC(C)C)C(=O)N[C@@H](CC(=O)O)C(=O)N[C@@H](CCCNC(=N)N)C(=O)N[C@H](C(N)=O)[C@@H](C)CC)C1 [JAL-1900, H-Lys-Pro-Hgl-Sni-Phe-leu-Leu-Hyp-Nml-Asp-Arg-Ile-NH2] (HELM PEPTIDE1{K.P.[CCCCCC[C@H](N[*:1])C(=O)[*:2]].[O=C([C@H]1CCCN([*:1])C1)[*:2]].F.[dL].L.[Hyp].[meL].D.R.I.[am]}$$$$V2.0) | < 1
6 | CCCCCCCC(=O)N[C@H](C)C(=O)N[C@@H](Cc1ccccc1)C(=O)N[C@H](CC(C)C)C(=O)N[C@@H](CC(C)C)C(=O)N1C[C@H](O)C[C@H]1C(=O)N(C)[C@@H](CC(C)C)C(=O)N[C@H](C(=O)N[C@@H](CCCNC(=N)N)C(=O)N[C@H](C(N)=O)[C@@H](C)CC)C(C)C [JAL-1332, Occ-ala-Phe-leu-Leu-Hyp-Nml-Val-Arg-Ile-NH2] (HELM PEPTIDE1{[CCCCCCCC(=O)[*:2]].[dA].F.[dL].L.[Hyp].[meL].V.R.I.[am]}$$$$V2.0) | < 1
7 | CCCCCCCC(=O)N[C@H](C)C(=O)N[C@@H](Cc1ccccc1)C(=O)N[C@H](CCCNC(=N)N)C(=O)N[C@@H](CC(C)C)C(=O)N1C[C@H](N)C[C@H]1C(=O)N[C@@H](CC(C)C)C(=O)N[C@@H](CC(=O)O)C(=O)N[C@@H](CCCNC(=N)N)C(=O)N[C@H](C(N)=O)[C@@H](C)CC [JAL-1250, Occ-ala-Phe-arg-Leu-Tap-Leu-Asp-Arg-Ile-NH2] (HELM PEPTIDE1{[CCCCCCCC(=O)[*:2]].[dA].F.[dR].L.[N[C@@H]1C[C@@H](C(=O)[*:2])N([*:1])C1].L.D.R.I.[am]}$$$$V2.0) | < 1
8 | CC[C@H](C)[C@H](NC(=O)[C@H](CCCNC(=N)N)NC(=O)[C@H](CC(=O)O)NC(=O)[C@H](CC(C)C)N(C)C(=O)[C@@H]1C[C@@H](O)CN1C(=O)[C@H](CC(C)C)NC(=O)[C@@H](CC(C)C)NC(=O)[C@H](Cc1ccccc1)NC(=O)[C@H]1CCCN(C(=O)CCCc2ccccc2)C1)C(N)=O [JAL-1605, 1319-Sni-Phe-leu-Leu-Hyp-Nml-Asp-Arg-Ile-NH2] (HELM PEPTIDE1{[O=C(CCCc1ccccc1)[*:2]].[O=C([C@H]1CCCN([*:1])C1)[*:2]].F.[dL].L.[Hyp].[meL].D.R.I.[am]}$$$$V2.0) | < 1
9 | CCCCCCCCN1CCC[C@H](C(=O)N[C@@H](Cc2ccccc2)C(=O)N[C@H](CN(C)C)C(=O)N[C@@H](CC(C)C)C(=O)N2C[C@H](N)C[C@H]2C(=O)N(C)[C@@H](CC(C)C)C(=O)N[C@H](C(=O)N[C@@H](CCCNC(=N)N)C(=O)N[C@H](C(N)=O)[C@@H](C)CC)C(C)C)C1 [JAL-1405, Oct-Sni-Phe-dap(Me2)-Leu-Tap-Nml-Val-Arg-Ile-NH2] (X1-F[dDap(Me2)]L[Pro(4R-NH2)][NMeL]VRI-NH2) | < 1

Next, values leading:

Row | EC50 [µM] | SMILES
10 | < 1 | CCCCCCCC(=O)N1CCC[C@H](C(=O)N[C@@H](Cc2ccccc2)C(=O)N[C@H](CSC(C)(C)C)C(=O)N[C@@H](CC(C)C)C(=O)N2C[C@H](O)C[C@H]2C(=O)N(C)[C@@H](CC(C)C)C(=O)N[C@@H](CC(=O)O)C(=O)N[C@@H](CCCNC(=N)N)C(=O)N[C@H](C(N)=O)[C@@H](C)CC)C1 [JAL-1623, Occ-Sni-Phe-ctb-Leu-Hyp-Nml-Asp-Arg-Ile-NH2] (Octanoyl-[X2]F[dC](tBu)L[Hyp][NMeL]DRI-NH2)
11 | < 1 | CCCCCCCC(=O)N1CCC[C@H](C(=O)N[C@@H](Cc2ccccc2)C(=O)N[C@H](CN(C)C)C(=O)N[C@@H](CC(C)C)C(=O)N2C[C@H](N)C[C@H]2C(=O)N(C)[C@@H](CC(C)C)C(=O)N[C@@H](CC(=O)O)C(=O)N2CCC[C@H]2C(=O)NC2CCCCCC2)C1 [JAL-1603, Occ-Sni-Phe-dap(Me2)-Leu-Tap-Nml-Asp-Pro-Che] (Octanoyl-[X2]F[dDap(Me2)]L[Pro(4R-NH2)][NMeL]DP-NHcycloheptyl)
12 | < 1 | CCCCCCCC(=O)N1CCC[C@H](C(=O)N[C@@H](Cc2ccccc2)C(=O)NC(CC2CCNCC2)C(=O)N[C@@H](CC(C)C)C(=O)N2C[C@H](O)C[C@H]2C(=O)N(C)[C@@H](CC(C)C)C(=O)N[C@@H](CC(=O)O)C(=O)N[C@@H](CCCNC(=N)N)C(=O)N[C@H](C(N)=O)[C@@H](C)CC)C1 (stereo partly drawn) [JAL-1890, Occ-Sni-Phe-Egg-Leu-Hyp-Nml-Asp-Arg-Ile-NH2] (Octanoyl-[X2]F[X19]L[Hyp][NMeL]DRI-NH2)
13 | < 1 | CCCCCCCC(=O)N[C@H](C)C(=O)N[C@@H](Cc1ccccc1)C(=O)N[C@H](CN(C)C)C(=O)N[C@@H](CC(C)C)C(=O)N1C[C@H](N)C[C@H]1C(=O)N(C)[C@@H](CC(C)C)C(=O)N[C@@H](CC(=O)O)C(=O)N1CCC[C@H]1C(=O)N[C@H](C(N)=O)[C@@H](C)CC [JAL-1453, Occ-ala-Phe-dap(Me2)-Leu-Tap-Nml-Asp-Pro-Ile-NH2] (Octanoyl-[dA]F[dDap(Me2)]L[Pro(4R-NH2)][NMeL]DPI-NH2)
